Reference: patent publication US20240316012A1, “METHODS FOR TREATING LYMPHOMA” (Northwestern University, priority 2023, published 2024)

Tests used:
[1] = test system: ITK-SYK^+PD-1− lymphoma; experiment: Torin-1 inhibitor treatment in vivo of lymphoma-bearing NSG mice; parameters: species or system mouse
Text: FIGS. 2A-2F PD-1 represses mTOR and HIF1α in pre-malignant cells. […] White arrows indicate spleens. Color intensity represents the calculated MBq/ml uptake of ^18F-FDG. SUV, standardized uptake value ^18F-FDG, ^18F-fluordesoxyglucose. […] SUVmax denotes the maximum signal found in a single voxel across the entire tumor lesion. P=one-way ANOVA and two-sided Student's t-test. Shown are the mean±SEM and individual data points. […] CSI, chemical shift imaging. ROI, region of interest. […] P=two-sided Student's t-test. Shown are the mean±SD and individual data points. […] Spleen-derived single-cell suspensions were generated from ITK-SYK^CD4-creERT2 mice on d5 after TAM. Before fixation, anti-PD-L1 or control antibodies were added for four hours in vitro. […] On day 0, NSG mice received 1,000 ITK-SYK-expressing eGFP+ cells from an ITK-SYK^CD4-creERT2; Pdcd1^−/− mouse, FACS-sorted on d5 after TAM. Mice received 6 mg/kg Torin-1 or vehicle daily via intraperitoneal injection (n=6 mice per group) from day 3 p.i. on. P=two-sided log-rank test. FIG. 2A, Representative mice from two independent experiments. FIG. 2B, Pooled data from two independent experiments. FIG. 2C, Representative amplitudes from one experiment. FIG. 2D, Pooled data from two independent experiments. FIG. 2E, Representative data from two independent experiments with two biological replicates per group. […]

[2] = test system: H3K27 acetylation; experiment: Flow cytometry for H3K27ac after in vitro culture with inhibitors; type: cell-based, mouse; settings: exogenous acetate 100 μM; FIG. 11E
Text: Data are normalized to viable cell number and z-scores per metabolite. […] P=two-sided Student's t-test. The data are presented as the mean±SEM and individual data points for each animal. Cross indicates death of the animal. […] P=two-sided Student's t-test. Shown are the mean±SD and individual data points. […] Data are presented as mean±SD and individual data points. […] P=paired two-sided Student's t-test. Data are presented as the mean±SD. […] Data was normalized as in (a). P=two-sided Student's t-test. The data are presented as the mean±SEM. […] Experiment as in (h) (n=3 mice genotype). Data was normalized as in (a). P=two-sided Student's t-test. Data are presented as the mean±SD. FIGS. 3-D, Representative data from two independent experiments with n=3 biological replicates per group. FIG. 3E, Representative data from two independent experiments with two biological replicates per group. FIG. 3F, Representative data from two independent experiments. FIG. 3G, Representative data from two independent experiments with three biological replicates per group. FIG. 3H, Representative data from one experiment with four biological replicates per group. FIG. 3I, Representative data from one experiment with three biological replicates per group FIGS. 4A-4H show ACLY is a critical effector molecule downstream of PD-1. […] ITK-SYK^+ cells were FACS-sorted from ITK-[…]2 mice on d5 after TAM and 12 h anti-PD-L1 or isotype control antibody treatment (i.p., 200 μg). P=paired two-sided Student's t-test. Data are presented as the mean±SD. […] Spleen-derived single-cell suspensions were FACS-sorted from ITK-[…]2 mice on d5 after TAM and cultured in vitro overnight with anti-PD-L1 or isotype control antibodies and the PI3K inhibitors (“iPI3K”) Wortmannin (20 nM), LY294002 (20 μM), or DMSO. […] Spleen-derived lymphocytes, FACS-sorted from ITK-[…]2 and ITK-[…]2; Pdcd1^-/- mice on d5 after TAM were incubated for three days in vitro. P=two-sided Student's t-test. Data are presented as the mean±SD. […] Protein lysates were generated after 48 h in vitro culture. RNP, ribonucleoprotein. […] P=two-sided Logrank-test. […] ITK-SYK^+ cells were FACS-sorted from ITK-[…]2 (“Pdcd1^+/+”) and ITK-[…]2; Pdcd1^-/- (“Pdcd1^-/-”) mice on d5 after TAM, fixed, and processed for anti-H3K27ac ChIP-seq analysis. ChIP-seq, chromatin immunoprecipitation sequencing; TSS, transcription start site. FIG. 4B, Representative data from three independent experiments with three biological replicates per group. FIG. 4C, Representative data from two independent experiments with two biological replicates. FIGS. 4D and 4E, Representative data from 3 independent experiments. FIGS. 4F and 4G, Data from one experiment with n=5 mice per group. […] (8752, CST), and assessed by flow cytometry. […]

[3] = test system: PD-1 wild-type tumors (primary CTCL); experiment: Inhibitor treatment of human cells in vitro, division index, PD-1 wild-type CTCL cells; type: cell-based; settings: 2-DG 1 mM, everolimus 0.1 μM, BMS-303141 10 μM; 6 days; FIG. 7E
Protocol: (§1) FIGS. 7A-7H show ACLY dependency and AP-1 activation in human PDCD1 defective T-NHL. […] CNA, copy number aberrations. FIG. 7B GSEA for the indicated gene sets based on RNA-seq data from the 21 CTCL patients shown in (a). NES, normalized enrichment score; FDR, false discovery rate. […] P=one-way ANOVA and two-sided Student's t-test. Shown are the mean±SD and individual data points. […] FACS-sorted malignant cells were stimulated with anti-CD3/anti-CD28 beads, and 2-NBDG uptake was determined at the indicated time points. P=two-sided Student's t-test. Shown are the mean±SEM and individual data points. […] CFSE, carboxyfluorescein succinimidyl ester. P=two-sided Student's t-test. The data are presented as the mean±SEM and individual data points. […] Legend as in (5a). […] FIG. 7H GSEA for the indicated gene sets with RNA-seq data from 21 CTCL PDCD1mut” or “PDCD1 wt, and three patients with hyperprogression. NES, normalized enrichment score; FDR, false discovery rate. FIGS. 7A and 7B, Data from a single experiment with 21 patients. FIGS. 7C and 7D, Data from one experiment with three patients per group and three healthy donors. FIG. 7E, Data from one experiment with three patients and three healthy donors. FIGS. 7F and 7G, Data from one experiment with three patients per group. FIG. 7H, Data from a single experiment.
(§2) Isolation of primary human CTCL cells. This study was approved by the Northwestern University Institutional Review Board. Patients provided informed consent for inclusion in the study. […] The tumor burden for each patient was determined using well-validated clinical markers, taking whichever value was higher between Sezary cell counts or the CD26 negative cell number by clinical flow cytometry. These were analyzed in conjunction with white blood cell and absolute lymphocyte counts.
(§3) Inhibitor treatment of human cells in vitro Malignant CTCL cells and CD4^+ T cells from healthy donors were isolated as previously described. […] After 6 days, the cells were analyzed by flow cytometry, and the division index was determined using the FlowJo proliferation tool (v10.6, FlowJo LLC).

[4] = test system: PDCD1-mutant lymphoma cells (primary CTCL); experiment: Inhibitor treatment of human cells in vitro, division index, PDCD1-mutant CTCL cells; type: cell-based; settings: 2-DG 1 mM, everolimus 0.1 μM, BMS-303141 10 μM; anti-CD3/anti-CD28 beads, 6 days; FIG. 7E
Protocol: as §1, §2, §3

## CCC(=O)N1CCN(c2ccc(-n3c(=O)ccc4cnc5ccc(-c6cnc7ccccc7c6)cc5c43)cc2C(F)(F)F)CC1 [Torin-1]
[1]; NSG mice, Torin-1 intraperitoneal from day 3, 6 mg/kg daily or 10 mg per kg per day 5 days a week, vs vehicle, p=0.0057
  survival of ITK-SYK+PD-1− lymphoma-bearing mice: significantly prolonged survival
[1]; lymphoma-bearing mice, FIG. 10G
  mTOR activity within the tumor cells in vivo: blocks mTOR activity

## CC(=O)O [acetate]
[2]
  restoration of decreased H3K27ac signals in ACLY inhibitor-treated lymphoma cells: not able to restore

## CO[C@H]1C[C@@H]2CC[C@@H](C)[C@@](O)(O2)C(=O)C(=O)N2CCCC[C@H]2C(=O)O[C@H]([C@H](C)C[C@@H]2CC[C@@H](OCCO)[C@H](OC)C2)CC(=O)[C@H](C)/C=C(\C)[C@@H](O)[C@@H](OC)C(=O)[C@H](C)C[C@H](C)/C=C/C=C/C=C/1C [everolimus]
[3]
  response of stage-matched PD-1 wild-type tumors (relative division index): resistant
[4]
  viability, division and proliferation of PDCD1-mutant cancer cells (relative division index): reduced the viability and division
